Like-named read-outs stand apart in the source and are kept apart here.
Assays:
[1] = biological target: T1, tryptophan 2,3-dioxygenase (TDO) (Homo sapiens, UniProt P48775); format: biochemical
[2] = biological target: T1, tryptophan 2,3-dioxygenase (TDO); format: biochemical; remark: listed apart in the source

T1 sequence (P48775 whole entry): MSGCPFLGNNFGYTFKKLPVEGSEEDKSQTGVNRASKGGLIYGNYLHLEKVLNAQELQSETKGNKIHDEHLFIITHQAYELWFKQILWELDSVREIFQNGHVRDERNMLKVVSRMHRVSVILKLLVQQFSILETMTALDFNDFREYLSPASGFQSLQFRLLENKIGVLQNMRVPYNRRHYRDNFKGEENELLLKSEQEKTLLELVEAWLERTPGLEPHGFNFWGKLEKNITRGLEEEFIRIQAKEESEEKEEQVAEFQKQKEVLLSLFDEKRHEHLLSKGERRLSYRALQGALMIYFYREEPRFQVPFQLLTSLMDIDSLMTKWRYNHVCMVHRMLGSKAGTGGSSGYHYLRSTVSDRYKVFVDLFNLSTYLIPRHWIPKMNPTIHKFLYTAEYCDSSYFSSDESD

| SMILES | Ki [1] [µM] | Ki [2] [µM] |
| --- | --- | --- |
| O=C(O)C(O)Cc1c[nH]c2ccccc12 (centres unmarked) [compound 2, probe 2] | 444 ± 32 | – |
| CC(Cc1c[nH]c2ccccc12)C(=O)O (centres unmarked) [compound 1, probe 1] | – | 320 ± 43 |
